Results: patent US8815857B2 (Boehringer Ingelheim International GmbH, priority 2011, dated 2014)
Values after ≈ are worked out from the molar mass of the structure shown.

Legend:
[1] = molecular target: T1, human soluble guanylate cyclase alpha 1 and beta 1 subunits (sGC) stably expressed in Chinese hamster ovary cells (Homo sapiens, UniProt Q02108+Q02153); test: sGC cellular activator assay: cGMP in CHO cells expressing human sGC, preincubated with ODQ; type: cell-based; conditions: 40 microM ODQ preincubation, 30 min at room temperature, presence or absence of 50% human serum not given, read-out: EC50 nM, Activity of Compounds in Cellular Assay
T1 construct: expressed in transfected cells; host or cells: Chinese hamster ovary cells, stably transfected
T1 sequence (Q02108 1-690 partner): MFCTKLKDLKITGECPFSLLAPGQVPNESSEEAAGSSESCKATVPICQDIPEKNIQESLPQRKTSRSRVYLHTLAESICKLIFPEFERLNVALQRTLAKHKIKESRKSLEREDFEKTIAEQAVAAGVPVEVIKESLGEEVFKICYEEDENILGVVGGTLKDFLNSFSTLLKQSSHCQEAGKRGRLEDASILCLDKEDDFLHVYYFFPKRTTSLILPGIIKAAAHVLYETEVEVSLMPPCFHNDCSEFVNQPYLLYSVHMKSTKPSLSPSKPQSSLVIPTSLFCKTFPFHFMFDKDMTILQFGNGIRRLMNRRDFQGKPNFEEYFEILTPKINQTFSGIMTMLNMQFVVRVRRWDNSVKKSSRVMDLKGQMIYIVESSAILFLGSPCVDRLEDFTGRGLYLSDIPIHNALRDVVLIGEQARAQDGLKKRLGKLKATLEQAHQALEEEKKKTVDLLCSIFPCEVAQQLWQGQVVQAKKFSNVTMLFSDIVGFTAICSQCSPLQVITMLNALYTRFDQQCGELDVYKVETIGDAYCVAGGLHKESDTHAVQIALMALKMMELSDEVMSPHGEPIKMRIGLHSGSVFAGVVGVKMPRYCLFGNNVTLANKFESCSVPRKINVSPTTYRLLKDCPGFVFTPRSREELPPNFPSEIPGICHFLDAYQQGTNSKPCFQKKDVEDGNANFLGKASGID
T1 sequence (Q02153 1-619): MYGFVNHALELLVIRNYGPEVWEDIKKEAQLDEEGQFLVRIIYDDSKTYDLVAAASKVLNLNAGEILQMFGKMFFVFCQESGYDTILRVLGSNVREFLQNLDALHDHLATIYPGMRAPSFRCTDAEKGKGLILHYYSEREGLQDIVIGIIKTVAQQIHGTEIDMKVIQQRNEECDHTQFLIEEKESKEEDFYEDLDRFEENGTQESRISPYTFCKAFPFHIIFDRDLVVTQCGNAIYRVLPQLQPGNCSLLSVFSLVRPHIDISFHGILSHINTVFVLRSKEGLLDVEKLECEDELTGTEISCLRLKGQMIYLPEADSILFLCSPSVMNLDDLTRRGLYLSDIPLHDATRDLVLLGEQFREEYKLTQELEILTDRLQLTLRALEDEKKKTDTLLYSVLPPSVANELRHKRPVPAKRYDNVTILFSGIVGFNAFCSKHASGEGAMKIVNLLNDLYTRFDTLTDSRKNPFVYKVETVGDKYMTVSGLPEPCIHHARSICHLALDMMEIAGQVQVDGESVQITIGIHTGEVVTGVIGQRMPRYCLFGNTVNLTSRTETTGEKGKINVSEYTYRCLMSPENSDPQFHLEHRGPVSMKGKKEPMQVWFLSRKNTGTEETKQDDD
Method: The sGC cellular activator assay is performed in the presence and absence of 50% human serum (HS) using Chinese hamster ovary cells that have been stably transfected to express the human soluble guanylate cyclase alpha 1 and beta 1 subunits (sGC). Cells are preincubated with 40 microM 1H-[1,2,4]oxadiazolo[4,3-a]quinoxalin-1-one (ODQ), an sGC inhibitor, for one hour in buffer containing 0.1% bovine serum albumin and 3-isobutyl-1-methylxanthine (IBMX). Concentration response curves are prepared for test compounds in DMSO. An intermediate dilution of the compounds is performed in either buffer containing IBMX or type AB HS containing IBMX. Diluted compounds are added to cells and they are incubated at room temperature for thirty minutes. cGMP is measured using a CisBio homogeneous time resolved fluorescence kit and the EC50 is calculated for each compound.

[2] = Assessment of solubility: HT solubility in pION buffer, UV spectrophotometry; conditions: kinetic from dmso stock
[3] = pH 6.8, aqueous buffer, Solubility (pH 6.8), pH 6.8
[4] = pION system solution buffer, pH 4.5, pH 4.5, aqueous buffer, Solubility (pH 4.5), pH 4.5 buffer, 16-19 h incubation, 1.0% DMSO
[5] = pION system solution buffer, pH 7.4, pH 7.4, aqueous buffer, Solubility (pH 7.4), pH 7.4 buffer, 16-19 h incubation, 1.0% DMSO

SMILES	EC50 [1] [nM]	solubility [2, 3] [µg/mL]	solubility [2, 4] [µg/mL]	solubility [2, 5] [µg/mL]
COCC1CN(Cc2ccc(COc3ccc(C)cc3-c3csc(N4C[C@H]5CC[C@@H](C4)[C@H]5C(=O)O)n3)c(C#N)c2)CCO1 (stereo partly drawn) [Compound 212]	100	32 (≈ 53.1 µM)	11 (≈ 18.2 µM)	–
Cc1ccc(OCc2ccc(C(=O)N3CCCCC3)cc2C)c(-c2csc(N3C[C@H]4CC[C@@H](C3)[C@@]4(O)C(=O)O)n2)c1 [Compound 216, 8-hydroxy-3-(4-{5-methyl-2-[2-methyl-4-(piperidine-1-carbonyl)-benzyloxy]-phenyl}-thiazol-2-yl)-3-aza-bicyclo[3.2.1]octane-8(syn)-carboxylic acid]	390	0.17 (≈ 0.295 µM)	< 0.1	–
Cc1ccc(OCc2ccc(CN3CCOCC3)cc2C)c(-c2csc(N3CC[C@]4(C(=O)O)C[C@@H]4C3)n2)c1 [Compound 220]	42	4.8 (≈ 8.99 µM)	42 (≈ 78.7 µM)	4 (≈ 7.49 µM)
Cc1ccc(OCc2ccc(C(=O)N3CCCCC3)cc2C)c(-c2csc(N3C[C@H]4CC[C@@H](C3)[C@@]4(F)C(=O)O)n2)c1 [Compound 221, 8-fluoro-3-(4-{5-methyl-2-[2-methyl-4-(piperidine-1-carbonyl)-benzyloxy]-phenyl}-thiazol-2-yl)-3-aza-bicyclo[3.2.1]octane-8(syn)-carboxylic acid]	75	0.45 (≈ 0.779 µM)	< 0.1	–
Cc1ccc(OCc2ccc(CN3CCS(=O)(=O)CC3)cc2C)c(-c2csc(N3CC[C@]4(C(=O)O)C[C@@H]4C3)n2)c1 [Compound 222]	110	3.3 (≈ 5.67 µM)	< 0.1	30 (≈ 51.6 µM)
Cc1ccc(OCc2ccc(CN3CCS(=O)(=O)CC3)cc2C)c(-c2csc(N3CC[C@@]4(C(=O)O)C[C@H]4C3)n2)c1 [Compound 223]	5.2	2.5 (≈ 4.3 µM)	< 0.1	–
Cc1ccc(OCc2ccc(C(=O)N3CCOCC3)cc2C)c(-c2csc(N3CC[C@@]4(C(=O)O)C[C@H]4C3)n2)c1 [Compound 224]	5.8	54 (≈ 98.6 µM)	< 0.1	–
Cc1ccc(OCc2ccc(CN3CCN(C(=O)C4CC4)CC3)cc2C)c(-c2csc(N3CC[C@@]4(C(=O)O)C[C@H]4C3)n2)c1 [Compound 225]	7.3	0.3 (≈ 0.499 µM)	4.6 (≈ 7.66 µM)	–
Cc1ccc(OCc2ccc(C(=O)N3CCCCC3)cc2C)c(-c2csc(N3CC[C@@]4(C(=O)O)C[C@H]4C3)n2)c1 [Compound 226]	13	15 (≈ 27.5 µM)	< 0.1	–
Cc1ccc(OCc2ccc(CN3CCOC(CO)C3)cc2C#N)c(-c2csc(N3C[C@H]4CC[C@@H](C3)[C@H]4C(=O)O)n2)c1 (stereo partly drawn) [Compound 227]	99	62 (≈ 105 µM)	54 (≈ 91.7 µM)	–
Cc1ccc(OCc2ccc(CN3CCN(C(=O)C4CC4)CC3)cc2C)c(-c2csc(N3C[C@H]4CC[C@@H](C3)[C@H]4C(=O)O)n2)c1 [Compound 228]	39	0.42 (≈ 0.683 µM)	6.1 (≈ 9.92 µM)	–
Cc1ccc(OCc2ccc(C(=O)N3CCCCC3)cc2C)c(-c2csc(N3CCCC(C)(C(=O)O)CC3)n2)c1 (stereo not drawn) [Compound 229]	76	21 (≈ 37.4 µM)	0.4 (≈ 0.712 µM)	–
Cc1ccc(OCc2ccc(CN3CCS(=O)(=O)CC3)cc2C)c(-c2csc(N3CCCC(C)(C(=O)O)CC3)n2)c1 (stereo not drawn) [Compound 230]	120	0.95 (≈ 1.59 µM)	< 0.1	–
Cc1ccc(OCc2ccc(CN3C[C@@H]4C[C@H]3CO4)cc2C#N)c(-c2csc(N3C[C@H]4CC[C@@H](C3)[C@H]4C(=O)O)n2)c1 [Compound 232]	44	26 (≈ 45.6 µM)	46 (≈ 80.6 µM)	> 54
Cc1ccc(OCc2ccc(CN3CCOCC3)cc2C)c(-c2csc(N3CCCC(C)(C(=O)O)CC3)n2)c1 (stereo not drawn) [Compound 233]	310	0.6 (≈ 1.09 µM)	47 (≈ 85.5 µM)	–
Cc1ccc(OCc2ccc(CN3CCOC(C)C3)cc2C#N)c(-c2csc(N3C[C@H]4CC[C@@H](C3)[C@H]4C(=O)O)n2)c1 (stereo partly drawn) [Compound 238]	39	5.2 (≈ 9.08 µM)	4.9 (≈ 8.56 µM)	–
Cc1ccc(OCc2ccc(C(=O)N3CCOCC3)cc2C)c(-c2csc(N3CC[C@@H](C(=O)O)[C@H]3C)n2)c1 [Compound 241]	41	72 (≈ 134 µM)	9.2 (≈ 17.2 µM)	–
Cc1ccc(OCc2ccc(CN3CCOCC3)cc2C)c(-c2csc(N3CC[C@@H](C(=O)O)[C@H]3C)n2)c1 [Compound 242]	90	37 (≈ 70.9 µM)	53 (≈ 102 µM)	–
Cc1ccc(OCc2ccc(C(=O)N3CCCCC3)cc2C)c(-c2csc(N3C[C@@H]4[C@H](C3)[C@@H]4C(=O)O)n2)c1 [Compound 243]	180	61 (≈ 115 µM)	1.2 (≈ 2.26 µM)	–
Cc1ccc(OCc2ccc(CN3CCS(=O)(=O)CC3)cc2C)c(-c2csc(N3C[C@@H]4[C@H](C3)[C@@H]4C(=O)O)n2)c1 [Compound 244]	180	65 (≈ 114 µM)	2.6 (≈ 4.58 µM)	–
Cc1ccc(OCc2ccc(CN3CCS(=O)(=O)CC3)cc2C)c(-c2csc(N3CC[C@@H](C(=O)O)[C@H]3C)n2)c1 [Compound 245]	290	48 (≈ 84.2 µM)	3.6 (≈ 6.32 µM)	–
Cc1ccc(OCc2ccc(CN3CCOCC3)cc2C)c(-c2csc(N3C[C@@H]4[C@H](C3)[C@@H]4C(=O)O)n2)c1 [Compound 246]	340	54 (≈ 104 µM)	62 (≈ 119 µM)	–
Cc1ccc(OCc2ccc(C(=O)N3CCOCC3)cc2C)c(-c2csc(N3C[C@@H]4[C@H](C3)[C@@H]4C(=O)O)n2)c1 [Compound 247]	720	70 (≈ 131 µM)	46 (≈ 86.2 µM)	–
Cc1ccc(OCc2ccc(C(=O)N3CCCCC3)cc2C)c(-c2csc(N3CC4(CC4C(=O)O)C3)n2)c1 (stereo not drawn) [Compound 248]	110	47 (≈ 88.4 µM)	< 0.1	–
Cc1ccc(OCc2ccc(CN3CCN(C(=O)C4CC4)CC3)cc2C)c(-c2csc(N3CC(CC(=O)O)C3)n2)c1 [Compound 249]	140	51 (≈ 88.7 µM)	45 (≈ 78.3 µM)	–
